The target in one data set is T1, human BACE2 (1-460):Fc (Homo sapiens, UniProt Q9Y5Z0).
T1 construct: made in house; host or cells: HEK293 cells, transient transfection; purified from conditioned media by Protein A
T1 sequence (Q9Y5Z0 21-460): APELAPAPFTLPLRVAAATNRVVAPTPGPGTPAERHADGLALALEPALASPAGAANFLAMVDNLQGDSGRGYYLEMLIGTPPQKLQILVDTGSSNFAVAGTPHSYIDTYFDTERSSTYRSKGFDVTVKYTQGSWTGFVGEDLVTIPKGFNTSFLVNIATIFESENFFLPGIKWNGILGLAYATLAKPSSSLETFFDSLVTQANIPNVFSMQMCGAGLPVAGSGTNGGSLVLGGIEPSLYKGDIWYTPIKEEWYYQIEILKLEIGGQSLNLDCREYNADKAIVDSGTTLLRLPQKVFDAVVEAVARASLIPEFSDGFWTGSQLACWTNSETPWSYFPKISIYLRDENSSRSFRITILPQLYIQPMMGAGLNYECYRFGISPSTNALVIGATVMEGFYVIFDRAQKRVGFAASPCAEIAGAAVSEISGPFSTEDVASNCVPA
In words: BACE2 TMEM27 FRET Assay. The format is biochemical. How it is done: (§1) To assess selectivity of BACE1 over BACE2, the test compound is evaluated in FRET assays using specific substrates for BACE1 and BACE2 as described below. For in vitro enzymatic and cellular assays, the test compound is prepared in DMSO to make up a 10 mM stock solution. The stock solution is serially diluted in DMSO to obtain a ten-point dilution curve with final compound concentrations ranging from 10 μM to 0.05 nM in a 96-well round-bottom plate before conducting the in vitro enzymatic and whole cell assays.
(§2) Human BACE1 (accession number: AF190725) and human BACE2 (accession number: AF 204944) are cloned from total brain cDNA by RT-PCR. The nucleotide sequences corresponding to amino acid sequences #1 to 460 are inserted into the cDNA encoding human IgG1 (Fc) polypeptide (Vassar et al., Science, 286, 735-742 (1999)). […]
(§3) Conditioned media of HEK293 cells transiently transfected with huBACE1:Fc or huBACE2:Fc cDNA are collected. […] The purity of the final product is assessed by electrophoresis in 4-20% Tris-Glycine SDS-PAGE. […]
Serial dilutions of test compound are prepared as described above. […] The RFU of the mixture at time 0 is recorded at excitation wavelength 430 nm and emission wavelength 535 nm. […] The RFU at the end of incubation is recorded with the same excitation and emission settings used at time 0. […]

The target in data set [1] is T2, BACE1 activity in SH-SY5YAPP695Wt cells (Homo sapiens, UniProt P56817).
T2 construct: endogenous in cells; host or cells: SH-SY5Y (ATCC CRL2266) stably expressing human APP695Wt
Nature of the data set: SH-SY5YAPP695Wt Whole Cell Assay (Abeta ELISA). The format is cell-based. The note with it: 24 hours incubation, conditioned media, n=4. As to the method:
as §1
The routine whole cell assay for the measurement of inhibition of BACE1 activity utilizes the human neuroblastoma cell line SH-SY5Y (ATCC Accession No. CRL2266) stably expressing a human APP695Wt cDNA. Cells are routinely used up to passage number 6 and then discarded.
SH-SY5YAPP695Wt cells are plated in 96 well tissue culture plates at 5.0×10^4 cells/well in 200 μL culture media (50% MEM/EBSS and Ham's F12, 1× each sodium pyruvate, non-essential amino acids and NaHCO3 containing 10% FBS). The following day, media is removed from the cells, fresh media added then incubated at 37° C. for 24 hours in the presence/absence of test compound at the desired concentration range.
At the end of the incubation, conditioned media are analyzed for evidence of beta-secretase activity by analysis of Abeta peptides 1-40 and 1-42 by specific sandwich ELISAs. […]
On the technique in general: ELISA stands for enzyme-linked immunosorbent assay.

A further data set has as its target T3, Human BACE1(1-460):Fc (Homo sapiens, UniProt P56817).
T3 construct: made in house; host or cells: HEK293 cells, transient transfection; purified from conditioned media by Protein A
Nature of the data set: BACE1 FRET Assay. Format: biochemical. The note with it: purified recombinant huBACE1:Fc, FRET substrate based on APP; mean ± standard deviation of the mean, n=12. As to the method: as §1, §2, §3
Serial dilutions of the test compound are prepared as described above. […] The RFU of the mixture at time 0 is recorded at excitation wavelength 355 nm and emission wavelength 460 nm, after brief mixing on a plate shaker. […] The RFU at the end of incubation is recorded with the same excitation and emission settings used at time 0. […]

A short description of data set [2]: Plasma and CSF compound exposure in cannulated beagle dogs (LC/MS/MS). Format: in vivo. Particulars: dog, po, male beagle dogs, 1.0 mg/kg p.o. As to the method:
(§4) Several animal models, including mouse, guinea pig, dog, and monkey, may be used to screen for inhibition of beta-secretase activity in vivo following compound treatment. Herein, we conduct central pharmacology studies in a cannulated beagle dog model. In this model, a cohort of male beagle dogs are implanted with a cannula in the lumbar spine region and threaded up towards the cervical spine. This model allows multiple CSF collections throughout a single 48-72 hour study period through a subcutaneous lumbar port attached to the spinal catheter. As long as the cannula remains patent, additional CSF pharmacology studies can be conducted within the same cohort of dogs. Blood samples are processed to obtain plasma, and then plasma and CSF samples are aliquoted to allow determination of test compound and Abeta CSF concentrations.
In this study, six male beagle dogs are dosed p.o. with 1.0 mg/kg Example 1 in a 0.5 M, phosphate buffer (pH=2.0) formulation and blood (0.5, 1, 2, 3, 6, 9, 12, 24, and 48 hours) and CSF (3, 6, 9, 24, and 48 hours) are collected. Plasma and CSF compound concentrations are determined by LC/MS/MS methods. Plasma and CSF are also analyzed for Abeta 1-x. […] Total Abeta peptides (Abeta 1-x) levels are measured by a sandwich ELISA, using monoclonal 266 as a capture antibody and biotinylated 3D6 as reporting antibody. […]

Another data set relates to beta-secretase. Nature of the data set: In vivo inhibition of beta-secretase, cannulated beagle dog model (Abeta 1-x ELISA). Particulars: male beagle dogs, 1.0 mg/kg p.o. As to the method:
as §4
In this study, six male beagle dogs are dosed p.o. with 1.0 mg/kg Example 1 in a 0.5 M, phosphate buffer (pH=2.0) formulation and blood (0.5, 1, 2, 3, 6, 9, 12, 24, and 48 hours) and CSF (3, 6, 9, 24, and 48 hours) are collected. Plasma and CSF compound concentrations are determined by LC/MS/MS methods. Plasma and CSF are also analyzed for Abeta 1-x. “Abeta 1-x” as used herein refers to the sum of Abeta species that begin with residue 1 and end with a C-terminus greater than residue 28. This detects the majority of Abeta species and is often called “total Abeta”. Total Abeta peptides (Abeta 1-x) levels are measured by a sandwich ELISA, using monoclonal 266 as a capture antibody and biotinylated 3D6 as reporting antibody. (See May, et al., Journal of Neuroscience, 31, 16507-16516 (2011)).

The text below walks through data of patent publication US20190106434A1, “N-[3-[2-AMINO-5-(1,1-DIFLUOROETHYL)-4,4A,5,7-TETRAHYDROFURO[3,4-D][1,3]OXAZIN-7A-YL]-4-FLUORO-PHENYL-5-(TRIFLUOROMETHYL)PYRIDINE-2-CARBOXAMIDE AND ITS (4AR,5S,7AS) ISOMER AS A SELECTIVE BACE1 INHIBITOR FOR TREATING E.G. ALZHEIMER'S DISEASE” (Eli Lilly and Company, priority 2016, published 2019).

Broadly, the IC50 is the point on the concentration scale where inhibition reaches its midpoint. As a reminder, the AUC is the area under the concentration-time curve, a measure of exposure.

Read-outs that look alike come from different tables or passages of the source.

T2 sequence (P56817 46-501): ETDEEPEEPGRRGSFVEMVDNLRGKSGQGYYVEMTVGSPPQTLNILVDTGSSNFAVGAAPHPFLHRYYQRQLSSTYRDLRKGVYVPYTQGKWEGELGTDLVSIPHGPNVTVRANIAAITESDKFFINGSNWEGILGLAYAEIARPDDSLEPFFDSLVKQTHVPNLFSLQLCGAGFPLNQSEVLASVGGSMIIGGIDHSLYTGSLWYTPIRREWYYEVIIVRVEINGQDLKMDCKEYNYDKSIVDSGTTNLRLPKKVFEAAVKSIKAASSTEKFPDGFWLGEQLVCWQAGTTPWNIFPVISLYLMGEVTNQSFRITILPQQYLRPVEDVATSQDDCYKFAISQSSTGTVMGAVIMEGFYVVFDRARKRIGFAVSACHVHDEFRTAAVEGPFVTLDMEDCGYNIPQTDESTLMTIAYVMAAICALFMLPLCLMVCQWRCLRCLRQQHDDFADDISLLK
T3 sequence (P56817 22-460): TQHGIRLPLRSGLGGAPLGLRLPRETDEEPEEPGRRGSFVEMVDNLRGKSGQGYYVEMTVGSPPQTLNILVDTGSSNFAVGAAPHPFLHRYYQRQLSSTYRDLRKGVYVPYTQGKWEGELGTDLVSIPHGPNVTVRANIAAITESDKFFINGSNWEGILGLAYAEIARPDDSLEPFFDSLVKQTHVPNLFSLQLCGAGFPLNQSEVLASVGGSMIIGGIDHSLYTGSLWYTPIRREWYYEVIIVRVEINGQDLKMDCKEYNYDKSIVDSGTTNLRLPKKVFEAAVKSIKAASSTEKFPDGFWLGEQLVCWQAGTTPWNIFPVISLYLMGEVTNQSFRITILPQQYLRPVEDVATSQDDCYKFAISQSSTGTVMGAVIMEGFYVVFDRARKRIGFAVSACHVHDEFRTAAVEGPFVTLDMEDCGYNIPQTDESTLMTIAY

On to `CC(F)(F)[C@H]1OC[C@]2(c3cc(NC(=O)c4ccc(C(F)(F)F)cn4)ccc3F)N=C(N)OC[C@H]12` [Example 1, N-[3-[(4aR,5S,7aS)-2-Amino-5-(1,1-difluoroethyl)-4,4a,5,7-tetrahydrofuro[3,4-d][1,3]oxazin-7a-yl]-4-fluoro-phenyl]-5-(trifluoromethyl)pyridine-2-carboxamide], for which the IC50 against human BACE2 (1-460):Fc (huBACE2:Fc, TMEM27 LucY FRET substrate, mean ± standard deviation of the mean, n=6) was found to be 602 nM; in data set [1] (read-out: IC50 for SH-SY5YAPP695Wt A-beta (1-40) ELISA), 1.03 nM; in data set [1] (read-out: IC50 for SH-SY5YAPP695Wt A-beta (1-42) ELISA), 1.28 nM; on Human BACE1(1-460):Fc it was 11.9 nM. The “BACE1 selectivity over BACE2 (BACE2 IC50 / BACE1 IC50)” value on human BACE2 (1-460):Fc (selectivity for BACE1 over BACE2) was “approximately 50 fold”. In addition, in data set [2] (CSF / free plasma, free fraction by equilibrium dialysis, read-out: ratio of CSF AUC to free plasma AUC), the Kp amounted to 0.17. Further, the area under the curve (AUC) in data set [2] (plasma, read-out: total plasma AUC exposure) was found to be 7.96 µM·h. Also, the “reduction of CSF Abeta 1-x levels relative to baseline” value in the data set on beta-secretase (24 hours) was “approximately 65%”; with beta-secretase (48 hours) it was roughly 55%. For the same compound, the “reduction in plasma levels of Abeta 1-x at nadir” value in the data set on beta-secretase (48 hour post-dosing period) is on record as “up to 80%”.
